From US10202361B2, “Pyridazinones as herbicides” (E I DU PONT DE NEMOURS AND COMPANY, priority 2014, dated 2019)

What was measured:
Type in all cases: in vivo
[1] = test system: sedge, umbrella (small-flower umbrella sedge, Cyperus difformis); assay: Test B flooded paddy test; details: Flood, scale of 0 to 100, 0 is no effect, 100 is complete control, 13 to 15 d
Outline: (§1)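 2-leaf plants; pots flooded 3 cm over soil, compound dosed into floodwater, depth kept constant. Greenhouse, 13–15 d. Visual rating vs controls, 0 (no effect) to 100 (complete control); dash = not tested.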

[2] = test system: ducksalad (Heteranthera limosa); assay: Test B flooded paddy test; details: Flood, scale of 0 to 100, 0 is no effect, 100 is complete control, 13 to 15 d
Outline: as §1

[3] = test system: barnyardgrass (Echinochloa crus-galli); assay: Test B flooded paddy test; details: Flood, scale of 0 to 100, 0 is no effect, 100 is complete control, 13 to 15 d
Outline: as §1

[4] = test system: rice (Oryza sativa); assay: Test B flooded paddy test; details: Flood, scale of 0 to 100, 0 is no effect, 100 is complete control, 13 to 15 d
Outline: as §1

[5] = test system: wheat (Triticum aestivum); assay: Test A pre-/postemergence greenhouse herbicide test; details: 0 to 100 scale (0 no effect, 100 complete control), approx. 10 d
Outline: (§2)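 Pre + post applications, simultaneous; formulation = non-phytotoxic solvent mix incl. surfactant. Post: 1–2 leaf stage, 2–10 cm. Soil: loam/sand. Greenhouse ~10 d, visual rating 0 (no effect) to 100 (complete control) vs untreated.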

[6] = test system: barnyardgrass (Echinochloa crus-galli); assay: as above; details: 0 to 100 scale (0 no effect, 100 complete control), approx. 10 d
Outline: as §2

[7] = test system: foxtail, giant (giant foxtail, Setaria faberii); assay: as above; details: 0 to 100 scale (0 no effect, 100 complete control), approx. 10 d
Outline: as §2

[8] = test system: crabgrass, Large (large crabgrass, Digitaria sanguinalis); assay: as above; details: 0 to 100 scale (0 no effect, 100 complete control), approx. 10 d
Outline: as §2

[9] = test system: morningglory (Ipomoea spp.); assay: as above; details: 0 to 100 scale (0 no effect, 100 complete control), approx. 10 d
Outline: as §2

[10] = test system: corn (Zea mays); assay: as above; details: 0 to 100 scale (0 no effect, 100 complete control), approx. 10 d
Outline: as §2

[11] = test system: velvetleaf (Abutilon theophrasti); assay: as above; details: 0 to 100 scale (0 no effect, 100 complete control), approx. 10 d
Outline: as §2

[12] = test system: pigweed (Amaranthus retroflexus); assay: as above; details: 0 to 100 scale (0 no effect, 100 complete control), approx. 10 d
Outline: as §2

Row | SMILES | Plant response rating, Wheat ([5]; Postemergence, 125 g ai/ha) | Plant response rating, Wheat ([5]; Postemergence, 500 g ai/ha) | Plant response rating, Wheat ([5]; Preemergence, 125 g ai/ha) | Plant response rating, Wheat ([5]; Preemergence, 500 g ai/ha) | Plant response rating, Barnyardgrass ([6]; Postemergence, 125 g ai/ha) | Plant response rating, Barnyardgrass ([6]; Postemergence, 500 g ai/ha) | Plant response rating, Foxtail, Giant ([7]; Postemergence, 125 g ai/ha) | Plant response rating, Foxtail, Giant ([7]; Postemergence, 500 g ai/ha) | Plant response rating, Foxtail, Giant ([7]; Preemergence, 125 g ai/ha) | Plant response rating, Foxtail, Giant ([7]; Preemergence, 500 g ai/ha) | Plant response rating, Crabgrass, Large ([8]; Postemergence, 125 g ai/ha) | Plant response rating, Crabgrass, Large ([8]; Postemergence, 500 g ai/ha) | Plant response rating, Crabgrass, Large ([8]; Preemergence, 125 g ai/ha) | Plant response rating, Crabgrass, Large ([8]; Preemergence, 500 g ai/ha) | Plant response rating, Morningglory ([9]; Postemergence, 125 g ai/ha) | Plant response rating, Morningglory ([9]; Postemergence, 500 g ai/ha) | Plant response rating, Morningglory ([9]; Preemergence, 125 g ai/ha) | Plant response rating, Morningglory ([9]; Preemergence, 500 g ai/ha) | Plant response rating, Corn ([10]; Postemergence, 125 g ai/ha) | Plant response rating, Corn ([10]; Postemergence, 500 g ai/ha) | other results
1 | O=c1c2c(c(Oc3ccnc(C(F)(F)F)c3)nn1-c1ccc(Cl)cc1)CCCC2 [Compound 7] | 0 | 10 | 0 | 0 | 0 | 10 | 10 | 10 | 0 | 30 | 10 | 10 | 0 | 40 | 10 | 20 | 0 | 0 | 10 | 10 | Plant response rating, Sedge, Umbrella ([1]; 125 g ai/ha): 0; Plant response rating, Ducksalad ([2]; 125 g ai/ha): 0; Plant response rating, Barnyardgrass ([3]; 125 g ai/ha): 0; Plant response rating, Rice ([4]; 125 g ai/ha): 0; Plant response rating, Barnyardgrass ([6]; Preemergence, 125 g ai/ha): 0; Plant response rating, Barnyardgrass ([6]; Preemergence, 500 g ai/ha): 40; Plant response rating, Corn ([10]; Preemergence, 125 g ai/ha): 0; Plant response rating, Corn ([10]; Preemergence, 500 g ai/ha): 0; Plant response rating, Velvetleaf ([11]; Postemergence, 125 g ai/ha): 20; Plant response rating, Velvetleaf ([11]; Postemergence, 500 g ai/ha): 40; Plant response rating, Velvetleaf ([11]; Preemergence, 125 g ai/ha): 0; Plant response rating, Velvetleaf ([11]; Preemergence, 500 g ai/ha): 0; Plant response rating, Pigweed ([12]; Postemergence, 125 g ai/ha): 90; Plant response rating, Pigweed ([12]; Postemergence, 500 g ai/ha): 100; Plant response rating, Pigweed ([12]; Preemergence, 125 g ai/ha): 20; Plant response rating, Pigweed ([12]; Preemergence, 500 g ai/ha): 50
2 | Cc1cc(=O)n(-c2ccc(F)cc2)nc1Oc1cccc(C(F)(F)F)n1 [Compound 12] | 0 | 20 | 0 | 0 | 40 | 70 | 20 | 80 | 80 | 100 | 20 | 70 | 100 | 100 | 50 | 90 | 0 | 50 | 10 | 50 | Plant response rating, Sedge, Umbrella ([1]; 250 g ai/ha): 0; Plant response rating, Ducksalad ([2]; 250 g ai/ha): 0; Plant response rating, Barnyardgrass ([3]; 250 g ai/ha): 20; Plant response rating, Rice ([4]; 250 g ai/ha): 20; Plant response rating, Corn ([10]; Preemergence, 125 g ai/ha): 0; Plant response rating, Corn ([10]; Preemergence, 500 g ai/ha): 30; Plant response rating, Velvetleaf ([11]; Postemergence, 125 g ai/ha): 40; Plant response rating, Velvetleaf ([11]; Postemergence, 500 g ai/ha): 60; Plant response rating, Velvetleaf ([11]; Preemergence, 125 g ai/ha): 30; Plant response rating, Velvetleaf ([11]; Preemergence, 500 g ai/ha): 70; Plant response rating, Pigweed ([12]; Postemergence, 125 g ai/ha): 60; Plant response rating, Pigweed ([12]; Postemergence, 500 g ai/ha): 90; Plant response rating, Pigweed ([12]; Preemergence, 125 g ai/ha): 90; Plant response rating, Pigweed ([12]; Preemergence, 500 g ai/ha): 100
